The subject of test [1] is antibody production (IgM). In words: Antibody production (IgM) in aged mice. As to conditions: second value column under head 'PFC IgM/logx^2'; aged mice 18 months old; n = 8/group; young control 84.1, aged 41.0. The format is in vivo, aged mice (Balb/c).
A further test relates to Anti-SRBC-Ab (IgM). Nature of the test: Anti-SRBC-Ab titer (IgM) in newborn rats after 9x treatment (hemagglutination). The following applies: 9x (3x3 weeks/ip), n = 12, control 6.3 (TP5), 5.2 (TP3). The format is in vivo, Hannover Wistar rats (newborn). Here is the method: Rats (Hannover Wistar) were treated (i.p.) within 6-12 hours after birth. Treatments after birth in a single session or in another examination • on the 7th day after the first treatment; • another group was vaccinated 3 times a week after the first day of […]. treatment • in a subsequent group treated over three weeks (9× in total) (10-3,10-5,10-7//10-9, 10-11,10-12, 10-13 M/animal, i.p). • in the fourth test series, the animals were treated with TP fragments at 0, 1, 2, 4, or 5 days of age. The rats were unanimously immunized on the 14th day after birth (1% BVVT with 0.5 ml cell suspension, i.p.). Immune responses were measured after 7 days on day 21 of the experiment.
Rats (Hannover Wistar) were treated (i.p.) within 6-12 hours after birth. Treatments after birth in a single session or in another examination • on the 7th day after the first treatment; • another group was vaccinated 3 times a week after the first day of treatment. • in a subsequent group, the treatments took place over three weeks (9× in total) (10-3,10-5,10-7//10-9, 10-11,10-12,10-13 M/animal, i.p.). • in the fourth test series, the animals were treated with TP fragments at 0, 1, 2, 4, or 5 days of age. The rats were randomly immunized on the 14th day after birth (1% BVVT with 0.5 ml cell suspension, i.p.). Immune responses were measured after 7 days on day 21 of the experiment. 1.2. Determination of anti-BVVT Ab titers (from rat blood samples ex vivo) • with the haemagglutination method (Takátsy and Fürész, 1955) on 96-well plates (Flow). 50 ul of 0.9% NaCl solution was added to each well. The sera (50 μl) were diluted by half dilution in 12 steps, mixed with 25 pμl 2% BVVT cell suspension, and incubated (1 hour at 37 °C). The hemagglutination titers of the sera are determined. Values expressed in logarithmic values refer to total agglutination.

The subject of test [2] is Thy 1+, Lyt 1+, Lyt 2+ spleen cells. In words: Spleen cell subpopulations (Thy 1, Lyt 1, Lyt 2) in adult thymus-removed (Tx) mice. Type of test: in vivo, C57BL mice (adult thymectomized). As to conditions: male, 1.0 mg/kg/ip, n = 8/group. Here is the method:
• D.1/Direct cytotoxicity test/for the detection of Thy, Lyt antigens (Fathman 1979, in Immunol Meth I. Eds. Lefkovits, Pernis, Acad Press, New York, pp. 212-213.) was used. Subpopulation ratios were determined from bone marrow cells, thymus, and spleen cells isolated from the lymphatic organs of mice. The cell suspensions (1.087-1.088 g/cm3) were centrifuged ona density gradient (2000 rpm, 20 minutes), and the cells were washed 3× with RPMI1640 medium containing 0.3% BSA, then adjusted to 107/ml. Thyl, Lyt 1, Lyt2 monoclonal antibodies (McAb/Ando I. (ICRF Human Tumor Immunol. UCM Med Sch. London) were obtained. 25 μl McAb and 25 ul cell suspension were incubated (60′, 40C1), after centrifugation (1250 rpm 10′), the cells were resuspended with 40 μul of diluted (1:50) rabbit complement, then incubated (370C, 60′). The cell suspensions were stained with 1:5 dilution of Eosin Y (Jansen). the ratio of live to non-living cells was determined.
(§1) After thymectomy, mice were treated with doses of 1 mg/kg, i.p. once a week for six weeks. Thy 1+, Lyt1+, and Lyt2+ in the spleen cells of mice at the age of 13 weeks cell proportions were determined based on what was previously described.

Test [3] relates to transplanted skin graft rejection. Nature of the test: Rejection of the transplanted skin graft in adult thymus-removed (Tx) mice. The following applies: for rejection of the transplanted skin graft: n = 8/group. The format is in vivo, C57BL mice (adult thymectomized). The method, then:
1.3./Determination of the number of plaque-forming cells (PFC) (using rat spleen cells) The chopped splenocytes were placed in a culture medium (Parker 199) and then shaken with a shaker for 1 minute. The cells were suctioned from the surface of the rapidly settling tissue debris. Red blood cells were removed osmotically. Cell suspensions were adjusted to 107/ml. The cell suspensions were mixed with a 15% BVVT cell suspension in a ratio of 2:1. PFC was determined with the mixture using a modified chamber technique according to Channingham et al., 1966). Before filling the chamber, 50 μl of fresh diluted guinea pig serum (1:20) was added. The chambers (2-2/slide) were incubated (370C 45′) after sealing with paraffin, the formed plaques were counted under a microscope (at 400× magnification) within 2 hours Marker tests related to the rejection reaction of an adult thymus-depleted mouse skin graft 1.4./Rejection of skin transplants in nude mice after treatment with TP fragments (Snell et al., Transplantation 5, 492, 1967).
as §1
5. The Effect of TP3 was Tested on the Activity of the Immune System by Rejection of Skin Graft
• in adult thymectomized (Tx) C57BL mice.

The values that follow come from patent publication US20260315564A1, “THE USE OF TP3 (THYMOPENTIN ANALOG) BY INCREASING THE ACTIVITY AND NUMBER OF T-CELLS INVOLVED IN THE DEFENSE MECHANISM OF THE IMMUNE SYSTEM OF MAMMALS, FOR THE PREVENTION OR TREATMENT OF DISEASES TO EXTEND THE AVERAGE LIFESPAN” (priority 2023, published 2026).

Molecules are shown by their SMILES. Marks after values point to notes of the source that are not given here. Residues, ends and D or L forms follow the SMILES beside them.

Take `CC(C)[C@H](NC(=O)[C@H](CC(=O)O)NC(=O)[C@H](CCCCN)NC(=O)[C@@H](N)CCCN=C(N)N)C(=O)N[C@@H](Cc1ccc(O)cc1)C(=O)O` [TP5] (H-RKDVY-OH): the “IgM/logx^2” value in test [1] was 44.7 logx^2. The “Anti-SRBC-Ab titer (IgM)” value is reported as 7.3 2 log in the test on Anti-SRBC-Ab (IgM) (10^-3 M/animal); 8.2* 2 log in the test with Anti-SRBC-Ab (IgM) (10^-4 M/animal); 8.6* 2 log with Anti-SRBC-Ab (IgM) (10^-5 M/animal); 7.5 2 log with Anti-SRBC-Ab (IgM) (10^-6 M/animal); 7.2 2 log with Anti-SRBC-Ab (IgM) (10^-9 M/animal); 10.7* 2 log in the test on Anti-SRBC-Ab (IgM) (10^-11 M/animal). In the test on Anti-SRBC-Ab (IgM) (10^-13 M/animal), the “Anti-SRBC-Ab titer (IgM)” value is on record as 7.9* 2 log. For the same compound, the Lyt1/Lyt2 in test [2] (control 1.77, Tx 1.96) was determined as 1.63. In test [2] (control 13.7, Tx 9.6), the “Lyt 2 spleen cells” value was 14.2* %. Besides, in test [2] (control 24.3, Tx 18.8), the “Lyt 1 spleen cells” value is given as 23.2* %. Besides, the “Thy 1 spleen cells” value in test [2] (control 30.1, Tx 8.1) was 21.2%. In addition, the “rejection of the transplanted skin graft” value in test [3] (female Tx C57BL mice, untreated control 14.5, Tx 54.6) was 23.1**; in test [3] (male Tx C57BL mice, untreated control 27.8, Tx 59.8), 41.3. The “recovery of T cells / shortening of skin graft survival time” value in test [3] (male mice, rank in words) is on record as “TP5>TP3”.
